Results: US12428378B2, “Methods and materials for increasing level of phosphorylated AMPK protein” (University of Pittsburgh—Of the Commonwealth System of …, priority 2019, dated 2025)

Test system: pAMPK
Assay: pAMPK immunostaining chemiluminescence assay in Beas2B cells
Type: cell-based
Details: Homo sapiens, BEAS-2B, 18 h, DMEM no glucose media, compounds 3-34, 36-44, 47-60 tested as HCl salts, read-out: efficacy (minimal compound concentration needed to increase pAMPK by 30%)
Description: Beas2B cells were plated in 384 white nunc plate (4000 cells per well) for overnight. Compounds were serially diluted in DMEM no glucose media using the liquid handler. Cells were washed once using Biotek EL406 before compound addition for additional 18 hours. Cells were washed and fixed with PFA before immunostained with pAMPK primary antibody and anti-Rabbit HRP secondary antibody. Finally, 25 μl of ECL reagent will be added to cells, and chemical luminescence signal will be counted using plate reader. Compounds efficacies (μM) were determined by the minimal compound concentration needed to increase pAMPK by 30%. Activity: “+” equals >10 μM; “++” equals between ≤10 μM and >1 μM; and “+++” equals ≤1 μM.

| SMILES | EC (30% increase) |
| --- | --- |
| Cc1ccccc1CN(Cc1cnccc1C(F)(F)F)CC(O)COc1ccccc1 (stereo not drawn) [compound 87] | 1 to 10 µM |
| Cc1ccccc1CN(CC(O)COc1ccccc1)C(=O)c1ccc(C(F)(F)F)nc1 (stereo not drawn) [compound 88] | ≤ 1 µM |
| Cc1ccccc1CN(CC(O)COc1ccc(C(F)(F)F)cc1)C(=O)c1c[nH]nc1C (stereo not drawn) [compound 89] | 1 to 10 µM |
| O=C(c1cncs1)N(Cc1ccccc1Cl)CC(O)COc1ccc(C(F)(F)F)cc1 (stereo not drawn) [compound 90] | ≤ 1 µM |
| Cn1ccnc1C(=O)N(Cc1ccccc1Cl)CC(O)COc1ccc(C(F)(F)F)cc1 (stereo not drawn) [compound 91] | ≤ 1 µM |
| FC(F)(F)c1ccc(OCCCc2nc3ccccc3cc2-c2ccccc2)cc1 [compound 92] | 1 to 10 µM |
| OC(COc1ccc(C(F)(F)F)cc1)CN1CCc2ccccc2C1c1cncs1 (stereo not drawn) [compound 93] | 1 to 10 µM |
| [2H]C1(c2cncs2)c2ccccc2CCN1CC(O)COc1ccc(C(F)(F)F)cc1 (stereo not drawn) [compound 94] | 1 to 10 µM |
| OC(COc1ccc(C(F)(F)F)cc1)CN1CCc2ccccc2C1c1cccnc1 (stereo not drawn) [compound 95] | ≤ 1 µM |
| [2H]C1(c2cccnc2)c2ccccc2CCN1CC(O)COc1ccc(C(F)(F)F)cc1 (stereo not drawn) [compound 96] | ≤ 1 µM |
| OC(COc1ccc(C(F)(F)F)cc1)CN1Cc2ccccc2CC1c1cncs1 (stereo not drawn) [compound 98] | 1 to 10 µM |
| [2H]C1(c2cncs2)c2ccccc2CCN1CCCOc1ccc(C(F)(F)F)cc1 (stereo not drawn) [compound 99] | ≤ 1 µM |
| FC(F)(F)c1ccc(OCCCN2CCc3ccccc3C2c2cccnc2)cc1 (stereo not drawn) [compound 100] | ≤ 1 µM |
| [2H]C1(c2cccnc2)c2ccccc2CCN1CCCOc1ccc(C(F)(F)F)cc1 (stereo not drawn) [compound 101] | ≤ 1 µM |
| [2H]C([2H])(c1cccnc1)N(Cc1ccccc1Cl)CC(O)COc1ccc(C(F)(F)F)cc1 (stereo not drawn) [compound 102] | ≤ 1 µM |
| O=C(COc1ccc(C(F)(F)F)cc1)Cc1nc2ccccc2cc1-c1cccnc1 [compound 103] | > 10 µM |
| FC(F)(F)c1ccc(OCCCN(Cc2cncs2)Cc2ccccc2Cl)cc1 [compound 104] | ≤ 1 µM |
| Cc1ccccc1CN(CCCOc1ccc(C(F)(F)F)cc1)Cc1nccn1C [compound 105] | ≤ 1 µM |
| Cn1ccnc1CN(CCCOc1ccc(C(F)(F)F)cc1)Cc1ccccc1Cl [compound 106] | ≤ 1 µM |

| SMILES | EC (30% increase) |
| --- | --- |
| FC(F)(F)c1ccc(OCCCN2CCc3ccccc3C2c2cncs2)cc1 (stereo not drawn) [compound 107] | ≤ 1 µM |
| Cn1cncc1C(=O)N(Cc1ccccc1Cl)CC(O)COc1ccc(C(F)(F)F)cc1 (stereo not drawn) [compound 108] | ≤ 1 µM |
| Cc1ccccc1CN(CCCOc1ccc(C(F)(F)F)cc1)C(=O)c1cncn1C [compound 109] | ≤ 1 µM |
| Cc1ccccc1CN(CCCOc1ccc(C(F)(F)F)cc1)C(=O)c1ccccc1 [compound 110] | ≤ 1 µM |
| OC(COc1ccc(C(F)(F)F)cc1)CN1CCc2ccccc2[C@@H]1c1ccccc1 (stereo partly drawn) [compound 111] | 1 to 10 µM |
| O[C@@H](COc1ccc(C(F)(F)F)cc1)CN1CCc2ccccc2[C@@H]1c1ccccc1 [compound 112] | ≤ 1 µM |
| O[C@H](COc1ccc(C(F)(F)F)cc1)CN1CCc2ccccc2[C@@H]1c1ccccc1 [compound 113] | 1 to 10 µM |
| OC(COc1ccc(C(F)(F)F)cc1)CN1CCc2ccccc2[C@H]1c1ccccc1 (stereo partly drawn) [compound 114] | > 10 µM |
| O[C@H](COc1ccc(C(F)(F)F)cc1)CN1CCc2ccccc2[C@H]1c1ccccc1 [compound 115] | 1 to 10 µM |
| O[C@@H](COc1ccc(C(F)(F)F)cc1)CN1CCc2ccccc2[C@H]1c1ccccc1 [compound 116] | > 10 µM |
| Cc1ccccc1CN(Cc1cccnc1)C(=O)C(O)COc1ccc(C(F)(F)F)cc1 (stereo not drawn) [compound 117] | 1 to 10 µM |
| Cc1ccccc1CN(CC(O)COc1ccc(C(F)(F)F)cc1)C(C)c1cccnc1 (stereo not drawn) [compound 118] | > 10 µM |
| Cc1ccccc1CN(CCCOc1ccc(C(F)(F)F)cc1)Cc1cncn1C [compound 119] | ≤ 1 µM |
| Cc1ccccc1CN(Cc1cccnc1)CC(C)(C)COc1ccc(C(F)(F)F)cc1 [compound 121] | ≤ 1 µM |
| Cn1cncc1CN(CCCOc1ccc(C(F)(F)F)cc1)Cc1ccccc1Cl [compound 122] | ≤ 1 µM |
| Cc1ccccc1CN(CC(=O)COc1ccc(C(F)(F)F)cc1)C(=O)c1cccnc1 [compound 123] | 1 to 10 µM |
| FC(F)(F)c1ccc(OCCCN2Cc3ccccc3CC2c2cncs2)cc1 (stereo not drawn) [compound 124] | 1 to 10 µM |
| Cn1cncc1C(=O)N(CCCOc1ccc(C(F)(F)F)cc1)Cc1ccccc1Cl [compound 125] | ≤ 1 µM |
| CC(=O)OC(COc1ccc(C(F)(F)F)cc1)C(=O)N(Cc1cncs1)Cc1ccccc1Cl (stereo not drawn) [compound 126] | > 10 µM |

| SMILES | EC (30% increase) |
| --- | --- |
| CC(=O)OC(COc1ccc(C(F)(F)F)cc1)C(=O)N(Cc1cccnc1)Cc1ccccc1Cl (stereo not drawn) [compound 127] | ≤ 1 µM |
| OC(COc1ccc(C(F)(F)F)cc1)CN1Cc2ccccc2C[C@@H]1c1cccnc1 (stereo partly drawn) [compound 129] | ≤ 1 µM |
| O[C@@H](COc1ccc(C(F)(F)F)cc1)CN1Cc2ccccc2C[C@@H]1c1cccnc1 [compound 130] | ≤ 1 µM |
| O[C@H](COc1ccc(C(F)(F)F)cc1)CN1Cc2ccccc2C[C@@H]1c1cccnc1 [compound 131] | ≤ 1 µM |
| OC(COc1ccc(C(F)(F)F)cc1)CN1Cc2ccccc2C[C@H]1c1cccnc1 (stereo partly drawn) [compound 132] | ≤ 1 µM |
| O[C@H](COc1ccc(C(F)(F)F)cc1)CN1Cc2ccccc2C[C@H]1c1cccnc1 [compound 133] | ≤ 1 µM |
| O[C@@H](COc1ccc(C(F)(F)F)cc1)CN1Cc2ccccc2C[C@H]1c1cccnc1 [compound 134] | ≤ 1 µM |
| [2H]C([2H])(c1cccnc1)N(CCCOc1ccc(C(F)(F)F)cc1)Cc1ccccc1C [compound 135] | ≤ 1 µM |
| FC(F)(F)c1ccc(OCCCN(Cc2ccccc2)Cc2cccnc2)cc1 [compound 136] | ≤ 1 µM |
| O=C(C(O)COc1ccc(C(F)(F)F)cc1)N(Cc1cccnc1)Cc1ccccc1Cl (stereo not drawn) [compound 137] | ≤ 1 µM |
| CC(c1cccnc1)N(Cc1ccccc1Cl)CC(O)COc1ccc(C(F)(F)F)cc1 (stereo not drawn) [compound 138] | > 10 µM |
| O=C(c1cccnc1)N(Cc1ccccc1Cl)CC(O)COc1ccc(C(F)(F)F)cc1 (stereo not drawn) [compound 141] | ≤ 1 µM |
| FC(F)(F)c1ccc(OCC2(CN(Cc3cccnc3)Cc3ccccc3Cl)CC2)cc1 [compound 142] | ≤ 1 µM |
| Fc1ccccc1CN(Cc1cccnc1)CC1(COc2ccc(C(F)(F)F)cc2)CC1 [compound 143] | ≤ 1 µM |
| Cn1cncc1C(=O)N(Cc1c(Cl)cccc1Cl)CC(O)COc1ccc(C(F)(F)F)cc1 (stereo not drawn) [compound 144] | 1 to 10 µM |
| Cn1cncc1C(=O)N(Cc1ccccc1C(F)(F)F)CC(O)COc1ccc(C(F)(F)F)cc1 (stereo not drawn) [compound 145] | 1 to 10 µM |
| Cc1ncccc1CN(CC(O)COc1ccc(C(F)(F)F)cc1)C(=O)c1cncn1C (stereo not drawn) [compound 146] | > 10 µM |
| Cn1cncc1CN(Cc1ccccc1Cl)CC(O)COc1ccc(F)cc1F (stereo not drawn) [compound 147] | > 10 µM |
| Cn1cncc1C(=O)N(Cc1ccccc1Cl)CC(O)COc1cnc(C(F)(F)F)nc1 (stereo not drawn) [compound 148] | > 10 µM |
